The test system of one data set is patients. Briefly: Clinical trials: tolerability, adverse events and suspensions of treatment. It counts as in vivo, man. The note with it: in vivo. The text has this: Interest in the amtolmetin guacyl molecule arose following a thorough analysis of the results of 31 comparative and 6 non-comparative clinical trials involving 1596 patients. […] Turthermore the physician, being aware of administering an NSAID, was expecting adverse events and could not be expected to be an impartial observer. The few cases of gastro-intestinal phenomena reported with amtolmetin guacyl were transitory and in no event accompanied by the presence of occult blood in the stools. Moreover, even in the presence of a reported side-effect it was almost never necessary to suspend treatment (0.4% of suspensions).
Following are summarized the results obtained on a total of 1596 patients in 37 clinical trials.
Confirmation of the above described advantages is the very low incidence of treatment suspension for adverse events found in clinics (Table 17), which is not the case for most of NSAIDs known in the art (Table 18).

Data set [1] relates to rat. Briefly: Fertility, embryotoxicity and teratogenicity studies. It is filed as in vivo.
For a further data set, the target named is T1, H2 receptors (Cavia porcellus, UniProt P47747).
T1 construct: using an organ in which only H2 receptors were present (guinea-pig atrium); from tissue; host or cells: guinea-pig atrium
T1 sequence (P47747 whole entry): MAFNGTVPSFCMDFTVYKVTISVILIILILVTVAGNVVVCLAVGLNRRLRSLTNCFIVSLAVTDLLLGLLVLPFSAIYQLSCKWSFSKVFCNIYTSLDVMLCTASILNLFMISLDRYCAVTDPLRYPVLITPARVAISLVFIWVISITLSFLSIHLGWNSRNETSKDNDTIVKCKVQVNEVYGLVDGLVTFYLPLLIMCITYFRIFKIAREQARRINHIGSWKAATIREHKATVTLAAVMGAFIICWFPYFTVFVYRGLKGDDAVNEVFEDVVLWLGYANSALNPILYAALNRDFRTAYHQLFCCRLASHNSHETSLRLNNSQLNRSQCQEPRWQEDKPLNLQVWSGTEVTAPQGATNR
As to the kind of experiment: Isolated atrium, histamine stimulation. The note with it: guinea-pig atrium, fig. 5. The source says:
On the basis of the above series of observations, we decided to study the pharmacological behaviour of a number of widely used NSAIDs (including amtolmetin guacyl) towards the gastric mucosa in the rat, as previously described. […] The first hypothesis was that we were deling with an anti-H2 drug, given the fact that its potency could be compared with that of cimetidine.

Data set [2] has as its system extra-articular rheumatism. As to the kind of experiment: Clinical trials in extra-articular rheumatism. It is filed as in vivo, man. Conditions: 90 patients, 14 days; versus diclofenac, naproxen, piperazine propionate. The text has this:
In extra-articular rheumatism amtolmetin guacyl was compared with diclofenac, naproxen and piperazine propionate.

Another data set can be described thus: Acute toxicity studies. The note with it: in vivo.
The subject of data set [3] is rat. Briefly: Chronic oral administration for 52 weeks, gastric damage. It is filed as in vivo.
The next data set relates to Salmonella Typhimurium. It counts as cell-based.

Structures are written as SMILES.

Consider `COc1ccccc1OC(=O)CNC(=O)Cc1ccc(C(=O)c2ccc(C)cc2)n1C` [MED 15, 2-methoxyphenyl-1-methyl-5p-methylbenzoylpyrrol-2-acetamido acetate], for which the Treatment suspended amounted to 4 in the data set on patients (human); 3 in the data set with patients (human, 10 days); 0 in the data set with patients (human, 21 days); 1 in the data set on patients (human, 30 days); 0 in the data set with patients (human, 60 days); 0 in the data set on patients (human, 90 days). The Treatment suspended was found to be 0 in the data set with patients (human, 120 days); 0 in the data set with patients (human, 150 days); 0 in the data set on patients (human, 180 days). Besides, the “incidence of adverse events involving the stomach” value in the data set on patients (human) is recorded as approximately 5%. The “reports of gastric discomfort” value in the data set on patients (human) is 4%. The Treatment suspended % in the data set on patients (human, 10 days) is on record as 1,6%; in the data set with patients (human, 30 days), 0,7%. In addition, the gastric lesions entry in the data set on patients is listed as “not to induce gastric lesions”. Besides, the “variations of the routine biological parameters” value with patients is listed as “no significant variations”. Moreover, the “fertility, embriotoxicity and teratogenicity” value with rat [1] is recorded as “safety”. At H2 receptors, the “interference with the H2 receptors” value is “did not interfere with the H2 receptors”. For the same compound, in data set [2], the “Evaluation of antiphlogistic activity” value was “In this indication no significant differences were noted between amtolmetin guacyl and the reference compounds”. For the same compound, in “Acute toxicity studies”, the “acute toxicity, tolerability” value is recorded as “excellent drug tolerability”. Besides, the gastric damage result with rat [3] is on record as “absence of gastric damage”. In the data set on Salmonella Typhimurium, the Ames test result is “absence of amtolmetin guacyl-related damage”.

The values are drawn from EP1024807B1, “USE OF THE COMPOUND 2-METHOXYPHENYL-1-METHYL-5P-METHYLBENZOYL-PYRROL-2-ACETAMIDO ACETATE FOR THE PRODUCTION OF AN ANTI-INFLAMMATORY DRUG WITH PREVENTION OF GASTRIC HYPERSECRETION AND RENAL IMPAIRMENT” (MEDOSAN Ricerca S.r.l., priority 1997, dated 1999).
